From BindingDB's records for doi:10.1021/jm00006a011 (Merck Sharp & Dohme Research Laboratories, 1995)

Target: Substance-P receptor (Homo sapiens, UniProt P25103)
Assay: Binding affinity at human Tachykinin receptor 1 expressed in CHO cells by [125 I][…]-substance P displacement.

Chain of Substance-P receptor (P25103 whole entry): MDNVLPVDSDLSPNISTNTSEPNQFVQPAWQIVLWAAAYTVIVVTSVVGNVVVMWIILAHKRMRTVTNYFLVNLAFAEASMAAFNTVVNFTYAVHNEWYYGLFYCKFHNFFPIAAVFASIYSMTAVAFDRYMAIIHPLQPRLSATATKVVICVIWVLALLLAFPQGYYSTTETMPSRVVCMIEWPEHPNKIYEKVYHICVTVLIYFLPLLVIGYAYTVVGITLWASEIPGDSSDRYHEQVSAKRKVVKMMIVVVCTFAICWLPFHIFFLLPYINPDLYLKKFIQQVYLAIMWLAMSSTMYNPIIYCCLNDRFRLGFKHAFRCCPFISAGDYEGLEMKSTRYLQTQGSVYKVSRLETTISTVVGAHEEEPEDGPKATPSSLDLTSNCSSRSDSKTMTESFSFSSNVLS

IC50: 0.022 µM
SMILES: O=c1oc(Cc2c[nH]c3ccccc23)c(O)n1Cc1cc(C(F)(F)F)cc(C(F)(F)F)c1
